Reference: ChEMBL document CHEMBL5321272 (J Med Chem, 2023)
Active and inactive are the calls of the source. The calls are words filed in the database; no cut-off is given here.

Experiments:
[1] = target: T1, Voltage-gated inwardly rectifying potassium channel KCNH2 (Homo sapiens, UniProt Q12809); assay: Inhibition of hERG expressed in HEK293 cells assessed as inhibition of tail current at 1 to 10 uM by whole cell patch clamp analysis; type: toxicity, cell-based; details: hek293, 10 µM, dose 1-10 µM
[2] = Selectivity ratio of IC50 for inhibition of c-KIT (unknown origin) to IC50 for inhibition of FLT3 D835Y mutant (unknown origin)
[3] = Selectivity ratio of IC50 for CDK1 (unknown origin) to IC50 for FLT3-ITD mutant (unknown origin)
[4] = target: Receptor-type tyrosine-protein kinase FLT3 (Homo sapiens) (UniProt P36888); assay: Inhibition of FLT3 in human MV4-11 cells assessed as inhibition of ERK phosphorylation at Tyr204 residue at 20 nM measured after 90 mins by western blot analysis; type: cell-based
[5] = Selectivity ratio of IC50 for JAK3 (unknown origin) to IC50 for FLT3-ITD mutant (unknown origin)
[6] = target: Receptor-type tyrosine-protein kinase FLT3 (Homo sapiens) (UniProt P36888); assay: Inhibition of FLT3 in human MV4-11 cells assessed as inhibition of STAT5 phosphorylation at Tyr694 residue measured after 90 mins by western blot analysis; type: cell-based; details: dose 20-100 nM
BaF3 [7] = assay: Antiproliferative activity against mouse BaF3 cells harboring FLT3 F691L mutant assessed as reduction in cell viability incubated for 72 hrs by CellTiter 96 Aqueous One Solution Cell Proliferation Assay; type: functional, cell-based
[8] = Selectivity ratio of IC50 for TEC (unknown origin) to IC50 for FLT3-ITD mutant (unknown origin)
[9] = target: T2, Serine/threonine-protein kinase Chk1 (Homo sapiens) (UniProt O14757); assay: Inhibition of CHK1 in human MV4-11 cells assessed as upregulation of p53 protein expression measured after 90 mins by western blot analysis; type: cell-based; details: dose 50-200 nM
T2 sequence (whole entry): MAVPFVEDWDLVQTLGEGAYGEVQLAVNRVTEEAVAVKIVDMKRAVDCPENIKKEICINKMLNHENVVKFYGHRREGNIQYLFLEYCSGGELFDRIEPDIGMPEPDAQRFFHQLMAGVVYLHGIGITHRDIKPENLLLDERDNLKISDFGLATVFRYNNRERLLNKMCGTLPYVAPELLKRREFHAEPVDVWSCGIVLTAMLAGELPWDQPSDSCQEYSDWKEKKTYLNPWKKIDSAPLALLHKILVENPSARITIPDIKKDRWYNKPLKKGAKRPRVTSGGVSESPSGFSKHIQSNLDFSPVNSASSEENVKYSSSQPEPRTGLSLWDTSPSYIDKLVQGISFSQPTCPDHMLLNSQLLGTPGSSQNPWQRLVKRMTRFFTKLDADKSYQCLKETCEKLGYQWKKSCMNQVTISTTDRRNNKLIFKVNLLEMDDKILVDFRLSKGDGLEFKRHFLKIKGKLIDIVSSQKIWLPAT

[10] = Acute toxicity in ICR mouse assessed as body weight loss at 300 mg/kg, ig and measured for 7 days; type: organism-based; details: in vivo, po, 168 h, time 7 day
BaF3 [11] = assay: Antiproliferative activity against mouse BaF3 cells harboring FLT3 D835V mutant assessed as reduction in cell viability incubated for 72 hrs by CellTiter 96 Aqueous One Solution Cell Proliferation Assay; type: functional, cell-based
[12] = Tmax in ICR mouse at 10 mg/kg, po; type: ADME, organism-based; details: in vivo
[13] = Selectivity ratio of IC50 for BLK (unknown origin) to IC50 for FLT3-ITD mutant (unknown origin)
[14] = Acute toxicity in ICR mouse assessed as animal's death at 300 mg/kg, ig and measured for 7 days; type: organism-based; details: in vivo, po, 168 h, time 7 day
MM1.S = assay: Antiproliferative activity against human MM1.S cells assessed as reduction in cell viability incubated for 72 hrs by CellTiter 96 Aqueous One Solution Cell Proliferation Assay; type: functional, cell-based
[15] = target: T1, Voltage-gated inwardly rectifying potassium channel KCNH2; assay: Inhibition of hERG expressed in HEK293 cells assessed as inhibition of channel current amplitude at 100 uM by whole cell patch clamp analysis; type: toxicity, cell-based; details: hek293, 100 µM
[16] = target: Receptor-type tyrosine-protein kinase FLT3 (Homo sapiens, UniProt P36888); assay: Inhibition of wild type FLT3 (unknown origin) using peptide substrate TK-S and ATP as substrate incubated for 1 hr by HTRF assay
[17] = Selectivity ratio of IC50 for BTK (unknown origin) to IC50 for FLT3-ITD mutant (unknown origin)
[18] = Selectivity ratio of IC50 for EPHA1 (unknown origin) to IC50 for FLT3-ITD mutant (unknown origin)
[19] = Toxicity against nu/nu mouse xenografted with human MV4-11 cells assessed as body weight changes at 1 to 3 mg/kg, po qd for 22 days; type: organism-based; details: in vivo, 528 h, dose 1-3 mg/kg, time 22 day
[20] = Cmax in ICR mouse at 10 mg/kg, po; type: ADME, organism-based; design: dose 10 mg/kg, route po; details: in vivo
hERG (KCNH2) = hERG (KCNH2) (Homo sapiens, UniProt Q12809); assay: Inhibition of hERG expressed in HEK293 cells at 20 uM by whole cell patch clamp analysis; type: toxicity, cell-based; details: HEK293 cells expressing hERG
[21] = Selectivity ratio of IC50 for ALK (unknown origin) to IC50 for FLT3-ITD mutant (unknown origin)
[22] = Selectivity ratio of IC50 for HCK (unknown origin) to IC50 for FLT3-ITD mutant (unknown origin)
[23] = Selectivity ratio of IC50 for CK1alpha (unknown origin) to IC50 for FLT3-ITD mutant (unknown origin)
[24] = Selectivity ratio of IC50 for Aurora kinase A (unknown origin) to IC50 for FLT3-ITD mutant (unknown origin)
BaF3 [25] = assay: Antiproliferative activity against mouse BaF3 cells harboring FLT3 D835F mutant assessed as reduction in cell viability incubated for 72 hrs by CellTiter 96 Aqueous One Solution Cell Proliferation Assay; type: functional, cell-based
[26] = target: Receptor-type tyrosine-protein kinase FLT3 (Homo sapiens) (UniProt P36888); assay: Inhibition of FLT3 in human MV4-11 cells assessed as inhibition of AKT phosphorylation at Ser473 residue measured after 90 mins by western blot analysis; type: cell-based; details: dose 20-100 nM
[27] = target: Mast/stem cell growth factor receptor Kit (Homo sapiens, UniProt P10721); assay: Inhibition of c-KIT (unknown origin) using peptide substrate TK-S and ATP as substrate incubated for 1 hr by HTRF assay; type: toxicity
[28] = target: Mitogen-activated protein kinase kinase kinase 7 (Homo sapiens, UniProt O43318); assay: Inhibition of TAK1 (unknown origin) by HTRF assay
[29] = Selectivity ratio of IC50 for MET (unknown origin) to IC50 for FLT3-ITD mutant (unknown origin)
[30] = Selectivity ratio of IC50 for IRAK4 (unknown origin) to IC50 for FLT3-ITD mutant (unknown origin)
[31] = target: T2, Serine/threonine-protein kinase Chk1 (Homo sapiens); assay: Inhibition of CHK1 in human MV4-11 cells assessed as increase in CHK1 phosphorylation at Ser345 residue at 50 to 200 nM measured after 90 mins by western blot analysis; type: cell-based; details: dose 50-200 nM
[32] = target: Casein kinase I isoform alpha (Homo sapiens, UniProt P48729); assay: Inhibition of CK1 alpha (unknown origin) by HTRF assay
Sequence of Casein kinase I isoform alpha (P48729 whole entry, canonical isoform): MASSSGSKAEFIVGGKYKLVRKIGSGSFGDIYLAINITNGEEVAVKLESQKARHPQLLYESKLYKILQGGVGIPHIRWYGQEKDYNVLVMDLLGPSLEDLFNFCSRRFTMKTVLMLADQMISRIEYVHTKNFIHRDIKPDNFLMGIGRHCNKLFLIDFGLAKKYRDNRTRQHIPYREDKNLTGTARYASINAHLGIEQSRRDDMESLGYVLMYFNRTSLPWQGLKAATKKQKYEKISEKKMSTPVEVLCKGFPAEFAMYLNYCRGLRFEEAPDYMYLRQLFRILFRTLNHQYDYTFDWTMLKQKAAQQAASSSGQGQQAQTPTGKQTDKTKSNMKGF

Sequence of Receptor-type tyrosine-protein kinase FLT3 (Homo sapiens) (P36888 whole entry): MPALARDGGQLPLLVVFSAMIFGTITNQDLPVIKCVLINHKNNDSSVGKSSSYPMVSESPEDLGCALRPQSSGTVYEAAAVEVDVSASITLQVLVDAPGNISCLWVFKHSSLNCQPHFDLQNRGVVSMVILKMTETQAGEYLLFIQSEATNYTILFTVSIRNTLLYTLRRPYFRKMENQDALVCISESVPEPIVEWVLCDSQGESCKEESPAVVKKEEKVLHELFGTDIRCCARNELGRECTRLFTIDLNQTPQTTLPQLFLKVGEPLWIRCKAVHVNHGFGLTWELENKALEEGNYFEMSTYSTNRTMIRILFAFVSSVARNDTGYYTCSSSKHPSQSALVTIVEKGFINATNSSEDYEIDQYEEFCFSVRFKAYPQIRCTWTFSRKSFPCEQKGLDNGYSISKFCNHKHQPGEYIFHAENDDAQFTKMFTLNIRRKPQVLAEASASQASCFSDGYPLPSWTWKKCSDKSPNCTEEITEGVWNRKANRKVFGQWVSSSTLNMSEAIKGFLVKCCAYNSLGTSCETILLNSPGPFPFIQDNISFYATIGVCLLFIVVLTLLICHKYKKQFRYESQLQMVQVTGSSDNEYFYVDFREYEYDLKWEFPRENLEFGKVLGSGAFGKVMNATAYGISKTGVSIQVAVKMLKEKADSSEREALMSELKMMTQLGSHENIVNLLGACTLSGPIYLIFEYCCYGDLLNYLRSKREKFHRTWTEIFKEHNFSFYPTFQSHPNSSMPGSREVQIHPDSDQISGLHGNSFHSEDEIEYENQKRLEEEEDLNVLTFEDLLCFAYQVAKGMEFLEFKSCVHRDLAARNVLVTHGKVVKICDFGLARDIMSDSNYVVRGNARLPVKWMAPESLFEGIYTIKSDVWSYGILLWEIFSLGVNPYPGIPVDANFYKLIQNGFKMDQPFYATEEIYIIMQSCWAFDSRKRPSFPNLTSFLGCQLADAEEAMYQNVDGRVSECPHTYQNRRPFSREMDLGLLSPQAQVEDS
T1 sequence (Q12809 whole entry): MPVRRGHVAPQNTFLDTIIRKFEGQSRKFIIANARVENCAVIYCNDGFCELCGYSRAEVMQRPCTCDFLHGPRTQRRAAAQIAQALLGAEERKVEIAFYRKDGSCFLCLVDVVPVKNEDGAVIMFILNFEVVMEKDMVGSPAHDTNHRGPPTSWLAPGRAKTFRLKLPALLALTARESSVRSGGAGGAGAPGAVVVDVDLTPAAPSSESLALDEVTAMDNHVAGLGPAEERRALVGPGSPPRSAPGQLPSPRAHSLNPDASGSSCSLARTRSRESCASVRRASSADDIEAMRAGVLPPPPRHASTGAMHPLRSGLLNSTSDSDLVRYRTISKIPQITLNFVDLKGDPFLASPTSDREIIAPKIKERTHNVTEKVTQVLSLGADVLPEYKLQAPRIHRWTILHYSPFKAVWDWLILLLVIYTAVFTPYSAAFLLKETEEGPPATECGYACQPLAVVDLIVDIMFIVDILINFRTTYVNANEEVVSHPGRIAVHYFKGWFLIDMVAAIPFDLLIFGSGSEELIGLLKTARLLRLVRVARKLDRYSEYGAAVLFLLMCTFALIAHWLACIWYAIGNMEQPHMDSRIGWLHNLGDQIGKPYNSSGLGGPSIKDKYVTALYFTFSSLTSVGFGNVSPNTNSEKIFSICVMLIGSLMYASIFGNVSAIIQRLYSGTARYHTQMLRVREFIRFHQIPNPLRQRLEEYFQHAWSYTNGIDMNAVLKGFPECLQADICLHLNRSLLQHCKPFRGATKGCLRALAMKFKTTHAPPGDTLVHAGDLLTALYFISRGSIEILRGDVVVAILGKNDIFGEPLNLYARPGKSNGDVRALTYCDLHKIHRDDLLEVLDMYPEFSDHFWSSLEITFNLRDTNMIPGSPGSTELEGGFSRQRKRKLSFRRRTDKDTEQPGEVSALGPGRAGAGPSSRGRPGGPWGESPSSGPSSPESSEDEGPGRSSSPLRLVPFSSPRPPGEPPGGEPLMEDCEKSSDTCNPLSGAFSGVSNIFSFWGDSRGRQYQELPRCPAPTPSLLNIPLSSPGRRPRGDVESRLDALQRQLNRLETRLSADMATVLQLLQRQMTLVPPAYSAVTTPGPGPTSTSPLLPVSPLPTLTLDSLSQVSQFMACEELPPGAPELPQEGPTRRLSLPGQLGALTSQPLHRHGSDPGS
Sequence of hERG (KCNH2) (Q12809 whole entry): as above
Sequence of Receptor-type tyrosine-protein kinase FLT3 (P36888 whole entry): as the sequence (P36888 whole entry) above
Sequence of Mast/stem cell growth factor receptor Kit (P10721 whole entry): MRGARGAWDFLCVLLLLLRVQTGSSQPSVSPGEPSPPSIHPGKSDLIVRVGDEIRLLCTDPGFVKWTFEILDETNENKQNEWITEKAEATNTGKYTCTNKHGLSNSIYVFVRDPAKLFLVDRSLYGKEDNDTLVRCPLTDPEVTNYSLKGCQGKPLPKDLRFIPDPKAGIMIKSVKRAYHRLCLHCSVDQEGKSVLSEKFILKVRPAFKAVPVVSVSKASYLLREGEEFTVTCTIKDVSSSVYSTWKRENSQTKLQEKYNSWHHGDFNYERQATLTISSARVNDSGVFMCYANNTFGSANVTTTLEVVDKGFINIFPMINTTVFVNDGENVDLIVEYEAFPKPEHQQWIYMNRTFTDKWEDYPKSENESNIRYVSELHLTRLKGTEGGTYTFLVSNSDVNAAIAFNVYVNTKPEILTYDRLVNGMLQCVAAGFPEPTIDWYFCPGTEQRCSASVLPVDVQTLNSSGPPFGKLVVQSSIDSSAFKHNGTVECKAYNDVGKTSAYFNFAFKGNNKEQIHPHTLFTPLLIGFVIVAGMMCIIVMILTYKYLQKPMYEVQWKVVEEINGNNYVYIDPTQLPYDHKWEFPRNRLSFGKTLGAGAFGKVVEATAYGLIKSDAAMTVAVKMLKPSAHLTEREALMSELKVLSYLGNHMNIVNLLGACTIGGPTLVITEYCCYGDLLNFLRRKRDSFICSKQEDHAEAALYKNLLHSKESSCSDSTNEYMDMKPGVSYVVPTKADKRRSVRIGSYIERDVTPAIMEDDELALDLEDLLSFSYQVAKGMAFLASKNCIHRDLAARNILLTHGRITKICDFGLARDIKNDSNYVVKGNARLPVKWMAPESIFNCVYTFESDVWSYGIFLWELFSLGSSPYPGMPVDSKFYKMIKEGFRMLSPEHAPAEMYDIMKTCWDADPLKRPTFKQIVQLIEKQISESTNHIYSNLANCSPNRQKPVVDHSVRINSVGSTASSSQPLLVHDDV

For `CC(C)(O)CC(=O)N1CCc2cc(Nc3ncc(C(F)(F)F)c(N[C@H]4CC[C@@H](N)CC4)n3)ccc2C1`, the “inhibition (INH)” value [1] was “Not Active”, the Ratio IC50 [2] was 1740 and the Ratio IC50 [3] was greater than 100. For the same molecule, the inhibition [4] was 100%, the Ratio IC50 [5] was greater than 100 and the inhibition [6] was “Dose-Dependent Effect”. For the same molecule, the Activity (BaF3 [7]) was “Active”, the Ratio IC50 [8] was greater than 100 and the inhibition [9] was “Dose-Dependent Effect”. For the same molecule, the Activity [10] was “Non-Toxic”, the Activity (BaF3 [11]) was “Active” and the Tmax [12] was 2 h. The Ratio IC50 [13] was greater than 100, the Activity [14] was “Non-Toxic” and the Activity (MM1.S) was “inactive”. The “inhibition (INH)” value [15] was “Active”, the IC50 [16] was less than 10 nM and the Ratio IC50 [17] was greater than 100. For the same molecule, the Ratio IC50 [18] was greater than 100, the Activity [19] was “Non-Toxic” and the Cmax [20] was 571 ng/mL. The inhibition at 20 µM (hERG (KCNH2)) was 2.37%, the Ratio IC50 [21] was greater than 100 and the Ratio IC50 [22] was greater than 100. The Ratio IC50 [23] was greater than 100, the Ratio IC50 [24] was greater than 100 and the Activity (BaF3 [25]) was “Active”. For the same molecule, the inhibition [26] was “Dose-Dependent Effect”, the IC50 [27] was 1870 nM and the IC50 [28] was 64.3 nM. The Ratio IC50 [29] was greater than 100, the Ratio IC50 [30] was greater than 100 and the inhibition [31] was “Active”. For the same molecule, the IC50 [32] was greater than 10000 nM.
